Assay type in all cases: cell-based, human
In experiment [1] the test system is BT-549 cells with NCX1 knockout. The experiment is described as follows: Sensitivity of BT-549 cells after CRISPR knockout of NCX1. To be noted: inducible Cas9, three sgRNAs targeted to NCX1.
Another experiment deals with BT-549 cells. The experiment can be described thus: Intracellular Ca2+ imaging. To be noted: BT-549, 150 nM and 500 nM, after 3 h, sustained at 6 h.
A further experiment relates to MDA-MB-231 cells. The experiment is described as follows: Intracellular Ca2+ imaging. To be noted: MDA-MB-231, 150 nM.

For `C[C@@H]1C[C@H](O)[C@]2(O)O[C@@H]3C[C@@]4(C=O)[C@@H](CC[C@@H]5[C@@H]4CC[C@]4(C)[C@@H](C6=CC(=O)OC6)CC[C@]54O)C[C@H]3O[C@@H]2O1` [calotropin (9), Calotropin], the “effect of removing NCX1 on sensitivity of BT-549 cells” value in experiment [1] is “did not reduce the sensitivity”. The “mean intracellular Ca2+ fluorescence compared to vehicle-treated cells” value in the experiment with BT-549 cells is “significantly increased”. In the experiment with MDA-MB-231 cells, the “change in Ca2+ fluorescence relative to BT-549 cells” value was “significantly less”.

(Values after publication PMC7540184 (Journal of natural products, 2020).)
